Laboratory results published in US20250170248A1, “SMARCA DEGRADERS AND USES THEREOF” (Kymera Therapeutics, Inc., priority 2021, published 2025).

Key:
Type in all cases: cell-based
[1] = biological target: T1, SMARCA4 (Homo sapiens, UniProt P51532); experiment: SMARCA4 Western blot degradation in MV4-11 cells; settings: for DC50 / Dmax: 24 h; for DC50: read-out: SMARCA4 MSD MV411 degradation 24 h: Mean external-Abs DC50; for Dmax: MV4-11, MV4-11 cells, read-out: SMARCA4 MSD MV411 degradation 24 h: average Dmax %
T1 construct: SMARCA2/SMARCA4 protein degradation selectivity in MV4-11 cells; endogenous in cells; host or cells: MV4-11
T1 sequence (P51532 whole entry): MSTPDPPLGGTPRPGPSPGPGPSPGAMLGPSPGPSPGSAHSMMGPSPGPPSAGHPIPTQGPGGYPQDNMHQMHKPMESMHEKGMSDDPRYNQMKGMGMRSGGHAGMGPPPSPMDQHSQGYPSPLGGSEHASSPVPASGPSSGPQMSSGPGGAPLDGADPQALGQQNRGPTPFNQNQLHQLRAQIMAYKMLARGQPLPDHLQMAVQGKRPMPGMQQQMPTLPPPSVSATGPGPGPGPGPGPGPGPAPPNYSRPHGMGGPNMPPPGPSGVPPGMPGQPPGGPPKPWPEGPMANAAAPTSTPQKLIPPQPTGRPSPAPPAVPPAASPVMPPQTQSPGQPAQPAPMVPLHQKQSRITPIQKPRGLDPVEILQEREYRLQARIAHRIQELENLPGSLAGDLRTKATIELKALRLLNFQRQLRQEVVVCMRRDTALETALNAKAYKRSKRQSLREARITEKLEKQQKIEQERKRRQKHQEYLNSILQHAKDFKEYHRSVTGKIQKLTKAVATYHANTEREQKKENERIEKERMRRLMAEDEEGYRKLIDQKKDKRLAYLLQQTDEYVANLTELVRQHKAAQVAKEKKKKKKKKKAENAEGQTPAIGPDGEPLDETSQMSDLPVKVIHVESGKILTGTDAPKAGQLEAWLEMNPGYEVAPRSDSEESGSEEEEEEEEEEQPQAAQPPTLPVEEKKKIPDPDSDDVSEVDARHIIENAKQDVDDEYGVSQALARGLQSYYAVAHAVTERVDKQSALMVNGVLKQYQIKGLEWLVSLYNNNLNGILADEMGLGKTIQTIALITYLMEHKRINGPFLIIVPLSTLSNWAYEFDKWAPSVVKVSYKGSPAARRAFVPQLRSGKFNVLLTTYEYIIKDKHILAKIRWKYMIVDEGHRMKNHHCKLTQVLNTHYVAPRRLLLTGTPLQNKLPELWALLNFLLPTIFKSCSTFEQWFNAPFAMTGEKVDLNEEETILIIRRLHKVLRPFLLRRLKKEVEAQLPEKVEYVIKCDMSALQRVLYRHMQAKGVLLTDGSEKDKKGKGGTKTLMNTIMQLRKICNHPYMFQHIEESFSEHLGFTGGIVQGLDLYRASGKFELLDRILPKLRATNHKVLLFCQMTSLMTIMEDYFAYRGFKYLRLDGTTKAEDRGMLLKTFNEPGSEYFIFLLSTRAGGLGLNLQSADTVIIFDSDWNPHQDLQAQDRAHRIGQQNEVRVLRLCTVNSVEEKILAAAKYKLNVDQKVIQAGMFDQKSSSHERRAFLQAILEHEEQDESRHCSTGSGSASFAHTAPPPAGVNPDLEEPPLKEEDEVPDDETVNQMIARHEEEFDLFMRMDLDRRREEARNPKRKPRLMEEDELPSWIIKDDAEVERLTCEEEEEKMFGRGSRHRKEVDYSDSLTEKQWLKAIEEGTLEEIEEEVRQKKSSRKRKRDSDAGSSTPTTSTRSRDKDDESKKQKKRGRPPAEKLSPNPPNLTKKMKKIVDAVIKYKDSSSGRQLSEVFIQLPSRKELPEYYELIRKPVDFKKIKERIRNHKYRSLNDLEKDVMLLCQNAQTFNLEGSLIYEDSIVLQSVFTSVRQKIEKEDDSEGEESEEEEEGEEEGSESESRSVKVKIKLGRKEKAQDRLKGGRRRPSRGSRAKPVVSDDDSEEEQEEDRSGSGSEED
In short: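 MV4-11 cells (4×10^6/well) treated with compound for 24 h, lysed in RIPA with protease/phosphatase inhibitors, and SMARCA2, SMARCA4 and beta-actin detected by Western blot with LI-COR readout. Values reported as letter-coded DC50, 24 h Dmax % and SMARCA2/4 selectivity fold.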

[2] = biological target: T2, SMARCA2 (Homo sapiens, UniProt P51531); experiment: SMARCA2 Western blot degradation in MV4-11 cells; parameters: SMARCA2/SMARCA4 protein degradation selectivity in MV4-11 cells; endogenous in cells; host or cells: MV4-11; settings: for Selectivity in MV411: SMARCA2/4 selectivity; for Dmax: MV4-11, MV4-11 cells, read-out: SMARCA2 MSD MV411 degradation 24 h: average Dmax %; for DC50: read-out: SMARCA2 MSD MV411 degradation 24 h: Mean external-Abs DC50
T2 sequence (P51531 whole entry): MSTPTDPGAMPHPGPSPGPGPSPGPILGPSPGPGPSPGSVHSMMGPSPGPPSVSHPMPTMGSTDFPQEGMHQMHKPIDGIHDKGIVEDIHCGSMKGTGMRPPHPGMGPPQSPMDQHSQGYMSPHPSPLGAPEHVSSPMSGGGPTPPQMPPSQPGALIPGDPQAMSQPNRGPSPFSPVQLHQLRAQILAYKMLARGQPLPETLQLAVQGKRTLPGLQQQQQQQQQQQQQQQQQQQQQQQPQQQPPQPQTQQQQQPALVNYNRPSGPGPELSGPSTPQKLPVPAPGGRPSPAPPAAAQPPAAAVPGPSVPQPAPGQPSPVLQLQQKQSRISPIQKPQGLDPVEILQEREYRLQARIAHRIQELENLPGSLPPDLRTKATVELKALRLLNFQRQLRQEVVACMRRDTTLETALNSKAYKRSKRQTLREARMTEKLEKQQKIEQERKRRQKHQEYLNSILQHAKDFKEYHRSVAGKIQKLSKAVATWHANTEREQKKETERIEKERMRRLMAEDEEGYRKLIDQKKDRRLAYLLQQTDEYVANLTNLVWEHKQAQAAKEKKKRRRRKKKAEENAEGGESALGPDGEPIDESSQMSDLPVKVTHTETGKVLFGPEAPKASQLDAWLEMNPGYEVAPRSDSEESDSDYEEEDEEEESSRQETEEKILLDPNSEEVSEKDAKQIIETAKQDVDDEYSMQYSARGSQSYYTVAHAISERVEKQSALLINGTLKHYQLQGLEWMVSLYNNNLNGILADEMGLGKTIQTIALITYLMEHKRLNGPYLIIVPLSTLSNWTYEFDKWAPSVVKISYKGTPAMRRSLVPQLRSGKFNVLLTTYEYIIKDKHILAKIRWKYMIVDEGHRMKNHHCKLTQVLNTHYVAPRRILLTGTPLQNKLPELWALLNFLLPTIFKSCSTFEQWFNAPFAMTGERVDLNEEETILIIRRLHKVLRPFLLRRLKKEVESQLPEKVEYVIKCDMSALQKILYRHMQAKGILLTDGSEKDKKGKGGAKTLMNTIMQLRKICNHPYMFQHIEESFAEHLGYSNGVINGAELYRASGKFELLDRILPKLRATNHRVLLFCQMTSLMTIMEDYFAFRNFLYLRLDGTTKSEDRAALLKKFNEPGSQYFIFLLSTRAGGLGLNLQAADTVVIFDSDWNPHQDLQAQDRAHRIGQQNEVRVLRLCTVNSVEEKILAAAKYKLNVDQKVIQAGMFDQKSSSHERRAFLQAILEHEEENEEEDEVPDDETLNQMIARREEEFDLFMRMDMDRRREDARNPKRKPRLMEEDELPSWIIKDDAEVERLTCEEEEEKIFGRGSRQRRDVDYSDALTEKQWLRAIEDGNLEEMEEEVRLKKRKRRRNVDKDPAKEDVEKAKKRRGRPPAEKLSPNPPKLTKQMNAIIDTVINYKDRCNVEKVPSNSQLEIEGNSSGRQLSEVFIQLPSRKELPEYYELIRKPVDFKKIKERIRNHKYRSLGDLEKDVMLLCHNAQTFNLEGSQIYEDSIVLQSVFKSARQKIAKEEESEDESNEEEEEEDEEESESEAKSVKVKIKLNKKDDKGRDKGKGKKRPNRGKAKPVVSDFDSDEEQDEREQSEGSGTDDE

[3] = biological target: T2, SMARCA2; experiment: MSD SMARCA2 degradation in A549 cell line; settings: for DC50 / Dmax: 24 h; for DC50: read-out: SMARCA2 MSD A549 degradation 24 h: Average external-Abs DC50; for Dmax: A549, A549 cells
In short: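 A549 cells treated 24 h with compound, 3-fold series from 1000 nM. Lysates captured on MSD plates and SMARCA2 quantified with anti-SMARCA2 and SULFO-TAG secondary antibodies (electrochemiluminescence). DC50 and Dmax (% degradation at 24 h) reported as letter bins.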

Row | SMILES | DC50 ([1]; MV4-11 cells) | Selectivity in MV411 ([2]; MV4-11 cells) | DC50 ([3]; A549 cells) | Dmax [1] | Dmax ([2]; 24 h) | DC50 ([2]; MV4-11 cells, 24 h) | Dmax [3] | SMARCA4 MSD MV411 degradation 24 h: average Dmax % ([1]; MV4-11 cells) | SMARCA2 MSD MV411 degradation 24 h: average Dmax % ([2]; MV4-11 cells, 24 h) | SMARCA2 MSD A549 degradation 24 h: Average Dmax % ([3]; A549 cells)
1 | C#Cc1cnc(CNC(=O)[C@@H]2C[C@@H](O)CN2C(=O)[C@@H](NC(=O)[C@H]2CC3(C2)C[C@H](N2CCC(N4CCC(N5CCN6c7cc(-c8ccccc8O)nnc7NC[C@H]6C5)CC4)CC2)C3)C(C)(C)C)c(OC)c1 (stereo partly drawn) [I-331] | > 0.1 µM | C (C (10-100 fold)) | > 0.1 µM |  |  |  |  |  |  | 
2 | C#Cc1ccc(CNC(=O)[C@@H]2C[C@@H](O)CN2C(=O)[C@@H](NC(=O)N2CCO[C@@H](CN3CCC(N4CCC(N5CCN6c7cc(-c8ccccc8O)nnc7NC[C@H]6C5)CC4)CC3)C2)C(C)(C)C)cc1 [I-218] | > 0.1 µM | C (C (10-100 fold)) | > 0.1 µM | < 50% | < 50% | > 0.1 µM | 50 to 70% |  |  | 
3 | Cc1ncsc1-c1ccc(CNC(=O)[C@@H]2C[C@@H](O)CN2C(=O)[C@@H](NC(=O)[C@H]2CC3(CC[C@H](N4CCN(c5cnc(N6CCc7[nH]c8nnc(-c9ccccc9O)cc8c7[C@H]6C)nc5)CC4)CC3)C2)C(C)(C)C)cc1 (single isomer, unassigned) [I-78] | > 0.1 µM | B (B (>100-500 fold)) | 0.01 to 0.05 µM | < 50% | 70 to 90% | 0.01 to 0.1 µM | > 90% |  |  | 
4 | C#Cc1ccc(CNC(=O)[C@@H]2C[C@@H](O)CN2C(=O)[C@@H](NC(=O)N2CC3(CC(N4CCC(N5CCC(N6CCc7[nH]c8nnc(-c9ccccc9O)cc8c7[C@H]6C)C5)CC4)C3)C2)C(C)(C)C)cc1 (mixture of isomers) [I-188] | > 0.1 µM | C (C (10-100 fold)) | > 0.1 µM | < 50% | 50 to 70% | 0.01 to 0.1 µM | > 90% |  |  | 
5 | C#Cc1ccc(CNC(=O)[C@@H]2C[C@@H](O)CN2C(=O)[C@@H](NC(=O)N2CC3(CC(N4CCC(c5cnc(N6CCc7[nH]c8nnc(-c9ccccc9O)cc8c7[C@H]6C)nc5)CC4)C3)C2)C(C)(C)C)c(OCCO)c1 [I-143] | 0.01 to 0.1 µM | C (C (10-100 fold)) | < 0.01 µM | > 90% | > 90% | 0.001 to 0.01 µM | > 90% |  |  | 
6 | C#Cc1cnc(CNC(=O)[C@@H]2C[C@@H](O)CN2C(=O)C(c2cc(OCCN3CCC(N4CCC(N5CCC(CN6CCN7c8cc(-c9ccccc9O)nnc8NC[C@H]7C6)CC5)CC4)CC3)no2)C(C)C)c(OC)c1 (stereo partly drawn) [I-303] | > 0.1 µM | B (B (>100-500 fold)) | > 0.1 µM | < 50% | 70 to 90% | 0.01 to 0.1 µM | > 90% |  |  | 
7 | C#Cc1ccc(CNC(=O)[C@@H]2C[C@@H](O)CN2C(=O)[C@@H](NC(=O)[C@H]2CCC3(CC2)C[C@H](N2CCC(c4cnc(N5CCN6c7cc(-c8ccccc8O)nnc7NC[C@H]6C5)nc4)CC2)C3)C(C)(C)C)c(OCCCN(C)C)c1 (single isomer, unassigned) [I-158] | 0.01 to 0.1 µM | C (C (10-100 fold)) | 0.05 to 0.1 µM |  |  | 0.001 to 0.01 µM |  | B (B (>70-90% degradation)) | B (B (>70-90% degradation)) | A (A (>90% degradation))
8 | CC#Cc1ccc(CNC(=O)[C@@H]2C[C@@H](O)CN2C(=O)[C@@H](NC(=O)[C@H]2CCC3(CC2)C[C@H](N2CCC(c4cnc(N5CCN6c7cc(-c8ccccc8O)nnc7NC[C@H]6C5)nc4)CC2)C3)C(C)(C)C)cc1 (single isomer, unassigned) [I-103] | > 0.1 µM | C (C (10-100 fold)) | 0.05 to 0.1 µM | 70 to 90% | 50 to 70% | 0.001 to 0.01 µM | > 90% |  |  | 
9 | C#Cc1ccc(CNC(=O)[C@@H]2C[C@@H](O)CN2C(=O)[C@@H](NC(=O)N2CCN(C[C@H]3CC[C@H](N4CCc5[nH]c6nnc(-c7ccccc7O)cc6c5[C@H]4C)CC3)CC2)C(C)(C)C)cc1 [I-200] | > 0.1 µM | C (C (10-100 fold)) | > 0.1 µM | < 50% | 50 to 70% | 0.01 to 0.1 µM | > 90% |  |  | 
10 | Cc1ncsc1-c1ccc(CNC(=O)[C@@H]2C[C@@H](O)CN2C(=O)[C@@H](NC(=O)[C@H]2CC3(C2)C[C@H](N2CCC(c4ccnc(N5CCN6c7cc(-c8ccccc8O)nnc7NC[C@H]6C5)n4)CC2)C3)C(C)(C)C)cc1 (single isomer, unassigned) [I-5] | > 0.1 µM | A (A (>500 fold)) | 0.01 to 0.05 µM | < 50% | > 90% | 0.001 to 0.01 µM | > 90% |  |  | 
11 | C#Cc1ccc(CNC(=O)[C@@H]2C[C@@H](O)CN2C(=O)[C@@H](NC(=O)N2CC3(CC(N4CCC(c5cnc(N6CCc7[nH]c8nnc(-c9ccccc9O)cc8c7[C@H]6C)nc5)CC4)C3)C2)C(C)(C)C)c(O)c1 [I-166] | 0.01 to 0.1 µM | C (C (10-100 fold)) | < 0.01 µM | > 90% | > 90% | 0.001 to 0.01 µM | > 90% |  |  | 
12 | C#Cc1ccc(CNC(=O)[C@@H]2C[C@@H](O)CN2C(=O)[C@@H](NC(=O)C2CCC3(CC2)CC(N2CCC(N4CCC[C@@H](C(=O)N5CCN6c7cc(-c8ccccc8O)nnc7NC[C@H]6C5)C4)CC2)C3)C(C)(C)C)cc1 (single isomer, unassigned) [I-91] | > 0.1 µM | A (A (>500 fold)) | > 0.1 µM | < 50% | 70 to 90% | 0.001 to 0.01 µM | > 90% |  |  | 
13 | Cc1ncsc1-c1ccc(CNC(=O)[C@@H]2C[C@@H](O)CN2C(=O)C(c2cc(OC[C@H]3CC[C@@H](N4CCC(c5cnc(N6CCc7[nH]c8nnc(-c9ccccc9O)cc8c7[C@@H]6C)nc5)CC4)CC3)no2)C(C)C)cc1 (single isomer, unassigned) [I-16] | 0.01 to 0.1 µM | D (D (<10 fold)) | 0.05 to 0.1 µM | 70 to 90% | > 90% | 0.001 to 0.01 µM | 70 to 90% |  |  | 
14 | Cc1ncsc1-c1ccc(CNC(=O)[C@@H]2C[C@@H](O)CN2C(=O)C(c2cc(OCCCN3CCC(c4cnc(N5CCN6c7cc(-c8ccccc8O)nnc7NCC6C5)nc4)CC3)no2)C(C)C)cc1 (stereo in doubt) [I-52, (2S,4R)-4-hydroxy-1-(2-(3-(3-(4-(2-((S)-2-(2-hydroxyphenyl)-6a,7,9,10-tetrahydro-5H-pyrazino[1′,2′:4,5]pyrazino[2,3-c]pyridazin-8(6H)-yl)pyrimidin-5-yl)piperidin-1-yl)propoxy)isoxazol-5-yl)-3-methylbutanoyl)-N-(4-(4-methylthiazol-5-yl)benzyl)pyrrolidine-2-carboxamide] | 0.001 to 0.01 µM | D (D (<10 fold)) | 0.01 to 0.05 µM | > 90% | > 90% | < 0.001 µM | > 90% |  |  | 
15 | Cc1ncsc1-c1ccc(CNC(=O)[C@@H]2C[C@@H](O)CN2C(=O)C(c2cc(OCCCN3CCC(c4cnc(N5CCN6c7cc(-c8ccccc8O)nnc7NC[C@H]6C5)nc4)CC3)no2)C(C)C)cc1 (single isomer, unassigned) [I-53] | 0.001 to 0.01 µM | D (D (<10 fold)) | 0.01 to 0.05 µM | > 90% | > 90% | < 0.001 µM | > 90% |  |  | 
16 | C#Cc1ccc(CNC(=O)[C@@H]2C[C@@H](O)CN2C(=O)[C@@H](NC(=O)C2CC3(C2)CN(c2cnc(N4CCC(N5CCN6c7cc(-c8ccccc8O)nnc7NC[C@H]6C5)CC4)cn2)C3)C(C)(C)C)cc1 [I-320] | 0.01 to 0.1 µM | C (C (10-100 fold)) | < 0.01 µM | > 90% | > 90% | 0.001 to 0.01 µM | > 90% |  |  | 
17 | C#Cc1ccc([C@H](C)NC(=O)[C@@H]2C[C@@H](O)CN2C(=O)[C@@H](NC(=O)N2CC3(C2)CN(C2CCN(c4cnc(N5CCc6[nH]c7nnc(-c8ccccc8O)cc7c6[C@H]5C)nc4)CC2)C3)C(C)(C)C)cc1 [I-249] | > 0.1 µM | C (C (10-100 fold)) | 0.01 to 0.05 µM | 70 to 90% | > 90% | 0.01 to 0.1 µM | > 90% |  |  | 
18 | C#Cc1ccc(CNC(=O)[C@@H]2C[C@@H](O)CN2C(=O)[C@@H](NC(=O)[C@H]2CC3(CC[C@H](N4CCN(c5cnc(N6CCc7[nH]c8nnc(-c9ccccc9O)cc8c7[C@H]6C)nc5)CC4)CC3)C2)C(C)(C)C)cc1 (single isomer, unassigned) [I-285] | > 0.1 µM | C (C (10-100 fold)) | 0.01 to 0.05 µM | 70 to 90% | 70 to 90% | 0.01 to 0.1 µM | > 90% |  |  | 
19 | COc1cc(C(C(=O)N2C[C@H](O)C[C@H]2C(=O)NCC#Cc2ccccc2OCCCCN2CCC(c3cnc(N4CCN5c6cc(-c7ccccc7O)nnc6NC[C@H]5C4)nc3)CC2)C(C)C)on1 (stereo partly drawn) [I-74] | 0.001 to 0.01 µM | C (C (10-100 fold)) | 0.01 to 0.05 µM | > 90% | > 90% | < 0.001 µM | > 90% |  |  | 
